# Target: T1, DLK (Homo sapiens, UniProt Q12852)
# T1 sequence (Q12852 1-520): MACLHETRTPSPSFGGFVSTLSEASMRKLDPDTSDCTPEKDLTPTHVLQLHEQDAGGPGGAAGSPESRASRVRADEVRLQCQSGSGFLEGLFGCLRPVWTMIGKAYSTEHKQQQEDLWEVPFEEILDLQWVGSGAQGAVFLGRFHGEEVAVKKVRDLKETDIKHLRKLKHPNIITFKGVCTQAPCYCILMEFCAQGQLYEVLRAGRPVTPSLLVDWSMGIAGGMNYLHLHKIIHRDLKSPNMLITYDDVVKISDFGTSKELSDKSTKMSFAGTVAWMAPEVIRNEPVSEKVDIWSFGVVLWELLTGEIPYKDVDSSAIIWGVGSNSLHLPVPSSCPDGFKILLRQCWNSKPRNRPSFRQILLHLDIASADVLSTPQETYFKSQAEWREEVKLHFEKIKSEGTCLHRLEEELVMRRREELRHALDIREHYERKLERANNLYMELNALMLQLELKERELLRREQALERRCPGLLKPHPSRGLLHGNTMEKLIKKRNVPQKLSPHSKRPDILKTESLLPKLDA
# Conditions: read-out: DLK (Ki) μM; TR-FRET; 5 nM GST-tagged DLK (catalytic domain aa 1-520), 40 nM HIS-MKK4 K131M substrate, 30 μM ATP, 60 minutes
row,SMILES,Ki
1,"Nc1ncc(-c2cc([C@H]3[C@@H]4CN(C5COC5)C[C@@H]43)n(C3CC3)n2)cc1C(F)F [Compound 170, 5-(1-cyclopropyl-5-((1R,5S,6r)-3-(oxe-tan-3-yl)-3-azabicyclo[3.1.0]hexan-6-yl)-1H-pyrazol-3-yl)-3-(difluoro-methyl)pyridin-2-amine]",0.012 µM
2,"CC(C)n1nc(-c2cnc(N)c(OC(F)F)c2)cc1[C@H]1[C@@H]2CN(C3COC3)C[C@@H]21 [Compound 141, 3-(difluoromethoxy)-5-(1-isopropyl-5-((1R,5S,6r)-3-(oxetan-3-yl)-3-aza-bicyclo[3.1.0]hexan-6-yl)-1H-pyrazol-3-yl)pyridin-2-amine]",0.008 µM
3,"Nc1ncc(-c2cc(C3CCOC3)n(C3CCC(F)(F)C3)n2)cc1Cl (centres unmarked) [Compound 23, 3-chloro-5-(1-(3,3-difluorocyclopent-yl)-5-(tetrahydrofuran-3-yl)-1H-pyra-zol-3-yl)pyridin-2-amine]",0.35 µM
4,"CC(C)Oc1cc(-c2cc([C@H]3[C@@H]4CN(C5COC5)C[C@@H]43)n(C(C)C)n2)cnc1N [Compound 146, 3-isopropoxy-5-(1-isopropyl-5-((1R,5S,6r)-3-(oxetan-3-yl)-3-azabicyclo [3.1.0]hexan-6-yl)-1H-pyrazol-3-yl) pyridin-2-amine]",0.014 µM
5,"CC(C)n1nc(-c2cnc3[nH]cc(F)c3c2)cc1C1CCN(C2COC2)CC1 [Compound 75, 3-fluoro-5-(1-isopropyl-5-(1-(oxetan-3-yl)piperidin-4-yl)-1H-pyrazol-3-yl)-1H-pyrrolo[2,3-b]pyridine]",0.096 µM
6,"Nc1ncc(-c2cc([C@H]3[C@@H]4CN(C5COC5)C[C@@H]43)n(C3CCC3)n2)cc1C1CC1 [Compound 153, 5-(1-cyclobutyl-5-((1R,5S,6r)-3-(oxe-tan-3-yl)-3-azabicyclo[3.1.0]hexan-6-yl)-1H-pyrazol-3-yl)-3-cyclopropyl-pyridin-2-amine]",0.011 µM
7,"Cc1c[nH]c2ncc(-c3cc(C4CCN(C5COC5)C4)n(C(C)C)n3)cc12 (centres unmarked) [Compound 64, 5-(1-isopropyl-5-(1-(oxetan-3-yl)pyr-rolidin-3-yl)-1H-pyrazol-3-yl)-3-meth-yl-1H-pyrrolo[2,3-b]pyridine]",0.0045 µM
8,"COCCN1C[C@@H]2[C@H](C1)[C@H]2c1cc(-c2cnc(N)c(OC(F)F)c2)nn1C(C)C [Compound 119, 3-(difluoromethoxy)-5-(1-isopropyl-5-((1R,5S,6r)-3-(2-methoxyethyl)-3-azabicyclo[3.1.0]hexan-6-yl)-1H-py-razol-3-yl)pyridin-2-amine]",0.0055 µM
9,"CC(=O)N1CC(c2cc(-c3cnc4[nH]cc(C(F)(F)F)c4c3)nn2CC2CC2)C1 [Compound 8, 1-(3-(1-(cyclopropylmethyl)-3-(3-(trifluoromethyl)-1H-pyrrolo[2,3-b]pyridin-5-yl)-1H-pyrazol-5-yl)azetidin-1-yl)ethanone]",0.01 µM
10,"CC(C)OC(=O)N1C[C@@H]2[C@H](C1)[C@H]2c1cc(-c2cnc(N)c(C(F)(F)F)c2)nn1C(C)C [Compound 130, (1R,5S,6r)-isopropyl 6-(3-(6-amino-5-(trifluoromethyl)pyr-ridin-3-yl)-1-isopropyl-1H-pyrazol-5-yl)-3-azabicyclo[3.1.0]hexane-3-car-boxylate]",0.0056 µM
11,"CC(C)n1nc(-c2cnc3c(c2)C(C)(C)CN3)cc1C1CCN(C2COC2)CC1 [Compound 95, 5-(1-isopropyl-5-(1-(oxetan-3-yl)piperidin-4-yl)-1H-pyrazol-3-yl)-3,3-dimethyl-2,3-dihydro-1H-pyrrolo[2,3-b]pyridine]",1.2 µM
12,"CC(C)n1nc(-c2cnc3[nH]cc(C#N)c3c2)cc1[C@H]1[C@@H]2CN(C3COC3)C[C@@H]21 [Compound 132, 5-(1-isopropyl-5-((1R,5S,6r)-3-(oxetan-3-yl)-3-azabicyclo[3.1.0]hexan-6-yl)-1H-pyrazol-3-yl)-1H-pyrrolo[2,3-b]pyridine-3-carbonitrile]",0.025 µM
13,"CCOc1cc(-c2cc(C3CCN(C4COC4)CC3)n(C3CCC(F)(F)C3)n2)cnc1N (centres unmarked) [Compound 85, 5-(1-(3,3-difluorocyclopentyl)-5-(1-(oxetan-3-yl)piperidin-4-yl)-1H-pyra-zol-3-yl)-3-ethoxypyridin-2-amine]",0.99 µM
14,"CC(C)n1nc(-c2cnc(N)c(C(C)(F)F)c2)cc1[C@H]1[C@@H]2CN(C3COC3)C[C@@H]21 [Compound 175, 3-(1,1-difluoroethyl)-5-(1-isopropyl-5-((1R,5S,6r)-3-(oxetan-3-yl)-3-aza-bicyclo[3.1.0]hexan-6-yl)-1H-pyrazol-3-yl)pyridin-2-amine]",0.0092 µM
15,"COCCN1C[C@@H]2[C@H](C1)[C@H]2c1cc(-c2cnc(N)c(C(F)(F)F)c2)nn1CC(F)(F)F [Compound 126, 5-(5-((1R,5S,6r)-3-(2-methoxyethyl)-3-azabicyclo[3.1.0]hexan-6-yl)-1-(2,2,2-trifluoroethyl)-1H-pyrazol-3-yl)-3-(trifluoromethyl)pyridin-2-amine]",0.0019 µM
16,"CC(C)n1nc(-c2cnc(N)c(OC(F)F)c2)cc1[C@H]1[C@@H]2CN(CC(F)(F)F)C[C@@H]21 [Compound 110, 3-(difluoromethoxy)-5-(1-isopropyl-5-((1R,5S,6r)-3-(2,2,2-trifluoroethyl)-3-azabicyclo[3.1.0]hexan-6-yl)-1H-pyrazol-3-yl)pyridin-2-amine]",0.0045 µM
17,"CC(=O)N1CCC(c2cc(-c3cnc4[nH]cc(C(F)(F)F)c4c3)nn2C(C)C)CC1 [Compound 50, 1-(4-(1-isopropyl-3-(3-(trifluorometh-yl)-1H-pyrrolo[2,3-b]pyridin-5-yl)-1H-pyrazol-5-yl)piperidin-1-yl)etha-none]",0.0037 µM
18,"Nc1ncc(-c2cc([C@H]3[C@@H]4CN(C5COC5)C[C@@H]43)n(CC3CCC3)n2)cc1C1CC1 [Compound 162, 5-(1-(cyclobutylmethyl)-5-((1R,5S,6r)-3-(oxetan-3-yl)-3-azabicyclo[3.1.0]hexan-6-yl)-1H-pyrazol-3-yl)-3-cyclopropylpyridin-2-amine]",0.066 µM
19,"Nc1ncc(-c2cc([C@H]3[C@@H]4CN(C5COC5)C[C@@H]43)n(CC3CCC3)n2)cc1OC(F)F [Compound 164, 5-(1-(cyclobutylmethyl)-5-((1R,5S,6r)-3-(oxetan-3-yl)-3-azabicyclo[3.1.0]hexan-6-yl)-1H-pyrazol-3-yl)-3-(di-fluoromethoxy)pyridin-2-amine]",0.013 µM
20,"Nc1ncc(-c2cc(C3CCN(C4COC4)CC3)n(C3CCC(F)(F)C3)n2)cc1OCC1CC1 (centres unmarked) [Compound 87, 3-(cyclopropylmethoxy)-5-(1-(3,3-di-fluorocyclopentyl)-5-(1-(oxetan-3-yl)piperidin-4-yl)-1H-pyrazol-3-yl)pyri-din-2-amine]",0.64 µM
21,"CN1CCC(c2cc(-c3cnc4[nH]cc(C(F)(F)F)c4c3)nn2C2CC(F)(F)C2)CC1=O (centres unmarked) [Compound 45, 4-(1-(3,3-difluorocyclobutyl)-3-(3-(tri-fluoromethyl)-1H-pyrrolo[2,3-b]pyri-din-5-yl)-1H-pyrazol-5-yl)-1-meth-ylpiperidin-2-one]",0.14 µM
22,"CN1CCC(c2cc(-c3cnc(N)c(Cl)c3)nn2C2CC(F)(F)C2)CC1=O (centres unmarked) [Compound 43, 4-(3-(6-amino-5-chloropyridin-3-yl)-1-(3,3-difluorocyclobutyl)-1H-pyra-zol-5-yl)-1-methylpiperidin-2-one]",0.06 µM
23,"CC(C)n1nc(-c2cnc(N)c(C(F)(F)F)c2)cc1C(C)(C)O [Compound 2, 2-(3-(6-amino-5-(trifluoromethyl)py-ridin-3-yl)-1-isopropyl-1H-pyrazol-5-yl)propan-2-ol]",0.11 µM
24,"CC(C)n1nc(-c2cnc3[nH]cc(C#N)c3c2)cc1C1CCN(C2COC2)CC1 [Compound 77, 5-(1-isopropyl-5-(1-(oxetan-3-yl)pipe-ridin-4-yl)-1H-pyrazol-3-yl)-1H-pyrro-lo[2,3-b]pyridine-3-carbonitrile]",0.12 µM
25,"Nc1ncc(-c2cc([C@H]3[C@@H]4CN(C5COC5)C[C@@H]43)n(C3CCCC3)n2)cc1Cl [Compound 136, 3-chloro-5-(1-cyclopentyl-5-((1R,5S,6r)-3-(oxetan-3-yl)-3-azabicyclo [3.1.0]hexan-6-yl)-1H-pyrazol-3-yl) pyridin-2-amine]",0.024 µM
26,"CC(C)n1nc(-c2cnc(N)c(C3CC3)c2)cc1C1CCN(C2COC2)CC1 [Compound 98, 3-cyclopropyl-5-(1-isopropyl-5-(1-(oxe-tan-3-yl)piperidin-4-yl)-1H-pyra-zol-3-yl)pyridin-2-amine]",0.36 µM
27,"CC(CC#N)N1C[C@@H]2[C@H](C1)[C@H]2c1cc(-c2cnc(N)c(C(F)(F)F)c2)nn1C(C)C (stereo partly drawn) [Compound 131, 3-((1R,5S,6r)-6-(3-(6-amino-5-(trifluoro-methyl)pyridin-3-yl)-1-isopropyl-1H-pyrazol-5-yl)-3-azabicyclo[3.1.0]hexan-3-yl)butanenitrile]",0.0044 µM
28,"Cc1c[nH]c2ncc(-c3cc(C4CCOCC4)n(C4CC(F)(F)C4)n3)cc12 [Compound 35, 5-(1-(3,3-difluorocyclobutyl)-5-(tetra-hydro-2H-pyran-4-yl)-1H-pyrazol-3-yl)-3-methyl-1H-pyrrolo[2,3-b]pyri-dine]",0.1 µM
29,"COCCN1C[C@@H]2[C@H](C1)[C@H]2c1cc(-c2cnc(N)c(OC(F)(F)F)c2)nn1C(C)C [Compound 125, 5-(1-isopropyl-5-((1R,5S,6r)-3-(2-meth-oxyethyl)-3-azabicyclo[3.1.0]hex-an-6-yl)-1H-pyrazol-3-yl)-3-(trifluoro-methoxy)pyridin-2-amine]",0.0058 µM

# From patent publication US10028942B2 (priority 2013, dated 2018)
